# Experimental data taken from patent US5854276A, “Substance WF16616, process for production thereof, and use thereof” (Fujisawa Pharmaceutical Co., Ltd., priority 1995, dated 1998).
# Legend:
# ICR female mice = experiment: Toxicity test, intraperitoneal injection in mice; type: in vivo; conditions: 5 mg/kg intraperitoneally once a day for three days
# Protocol: WF16616 substance was intraperitoneally injected into each of five 5-week-old ICR female mice at a dose of 5 mg/kg once a day for three days.
# Candida albicans No. 7 = experiment: Antifungal activity, microbroth dilution in YNBD medium, Candida albicans No. 7; type: cell-based; conditions: 1×10^4 cfu/100 μl/well, 37° C., 22 hours, 0.5% glucose-containing YNBD, microscopical observation
# Protocol: (§1) The antifungal activity of WF16616 substnace was measured in a 0.5% glucose-containing yeast nitrogen base (YNBD) medium by a microbroth dilution analysis method using a 96-well microtiter plate. This substance was dissolved in methanol, and was diluted to twice in sequence in the microtiter plate using the YNBD medium. The test microorganism was inoculated at a concentration of 1×10^4 cfu/100 μl/well. Candida albicans and Aspergillus fumigatus were incubated in the above-mentioned plate at 37° C. for 22 hours, and Cryptococcus neoformans at 30° C. for 48 hours, respectively. Then, MIC was measured through microscopical observation.
# [1] = tested on: Cryptococcus neoformans YC203; experiment: Antifungal activity, microbroth dilution in YNBD medium, Cryptococcus neoformans YC203; type: cell-based; conditions: 1×10^4 cfu/100 μl/well, 30° C., 48 hours, 0.5% glucose-containing YNBD, microscopical observation
# Protocol: as §1
# [2] = tested on: Aspergillus fumigatus FD050; experiment: Antifungal activity, microbroth dilution in YNBD medium, Aspergillus fumigatus FD050; type: cell-based; conditions: 1×10^4 cfu/100 μl/well, 37° C., 22 hours, 0.5% glucose-containing YNBD, microscopical observation
# Protocol: as §1
# Candida albicans FP633 = experiment: Antifungal activity, microbroth dilution in YNBD medium, Candida albicans FP633; type: cell-based; conditions: 1×10^4 cfu/100 μl/well, 37° C., 22 hours, 0.5% glucose-containing YNBD, microscopical observation
# Protocol: as §1
compound,measurement,setting,value
CCC(C)CC(C)CCCCCCCCC(=O)NC1CC(O)C(O)NC(=O)C2C(O)C(C)CN2C(=O)C(C(O)CC(N)=O)NC(=O)C(C(O)C(O)c2ccc(O)c(OS(=O)(=O)O)c2)NC(=O)C2CC(O)CN2C(=O)C(C(C)O)NC1=O (stereo not drawn) [WF16616 substance],dead mice,ICR female mice; five 5-week-old ICR female mice,none of the mice were dead
same,increase in the weight of mice,ICR female mice; versus unadministered mice,quite the same as that in the weight of unadministered mice
same,MIC,Candida albicans No. 7,0.78 µg/mL
same,MIC,[1],> 50 µg/mL
same,MIC,[2],0.16 µg/mL
same,MIC,Candida albicans FP633,0.1 µg/mL
